Laboratory results taken from patent publication US9060515B2, “Heterocyclic urea compounds” (BIOTA EUROPE LTD, priority 2011, dated 2015).
Values after ≈ are worked out from the molar mass of the structure shown.

Legend:
[1] = tested on: S. aureus (ATCC 29213); experiment: Antibacterial susceptibility testing (MIC, broth microdilution or agar dilution), S. aureus; type: cell-based; details: Staphylococcus aureus, ATCC29213; read-out: S. aureus (ATCC 29213) minimal inhibitory concentration (MIC)
Experimental: (§1) Compounds of the invention were tested for antimicrobial activity by susceptibility testing in liquid or on solid media. MICs for compounds against each strain were determined by the broth microdilution or agar dilution method according to the guidelines of the Clinical Laboratories and Standards Institute, formerly the National Committee for Clinical Laboratory Standards (Clinical Laboratories and Standards Institute. Methods for Dilution Antimicrobial Susceptibility Tests for Bacteria That Grow Aerobically; Approved Standard—Seventh Edition. Document M7-A7. CLSI, Wayne, Pa., 2006; Clinical Laboratories and Standards Institute. The Gram positive bacterial strains tested include S. aureus (Staphylococcus aureus (Isolate ID ATCC 29213)), E. faecalis (Enterococcus faecalis (Isolate ID ATCC 29212)) and S. pyogenes (Streptococcus pyogenes (Isolate ID ATCC 51339)). The Gram negative bacterial strains tested include H. influenzae (Haemophilus influenzae (Isolate ID ATCC 49247)).

[2] = tested on: S. pyogenes (ATCC 51339); experiment: Antibacterial susceptibility testing (MIC, broth microdilution or agar dilution), S. pyogenes; type: cell-based; details: Streptococcus pyogenes, ATCC51339; read-out: S. pyogenes (ATCC 51339) minimal inhibitory concentration (MIC)
Experimental: as §1

| SMILES | MIC [1] | MIC [2] |
| --- | --- | --- |
| CCNC(=O)Nc1cc(Nc2ccccc2)c(C(=O)NCC)cn1 [Compound 8, N-Ethyl-6-(3-ethylureido)-4-(phenylamino)nicotinamide] | 32 µg/mL (≈ 97.7 µM) | 16 µg/mL (≈ 48.9 µM) |
| CCNC(=O)Nc1cc(Nc2ccccc2)c(C(=O)Nc2ccnn2C)cn1 [Compound 10, 6-(3-Ethylureido)-N-(1-methyl-1H-pyrazol-5-yl)-4-(phenylamino)nicotinamide] | 16 µg/mL (≈ 42.2 µM) | 2 µg/mL (≈ 5.27 µM) |
| CCNC(=O)Nc1cc(Nc2ccc(OC)cc2)c(C(=O)Nc2cccnc2)cn1 [Compound 14, 6-(3-Ethylureido)-4-(4-methaxyphenylamino)-N-(pyridin-3-yl)nicotinamide] | 4 µg/mL (≈ 9.84 µM) | 2 µg/mL (≈ 4.92 µM) |
| CCNC(=O)Nc1cc(Nc2ccc(C(=O)OCC)cc2)c(C(=O)Nc2cccnc2)cn1 [Compound 15, Ethyl 4-(2-(3-ethylureido)-5-(pyridin-3-ylcarbamoyl)pyridin-4-ylamino)benzoate] | ≤ 1 µg/mL | ≤ 1 µg/mL |
| CCNC(=O)Nc1cc(Nc2ccc(C(=O)O)cc2)c(C(=O)Nc2cccnc2)cn1 [Compound 16, 4-(2-(3-Ethylureido)-5-(pyridin-3-ylcarbamoyl)pyridin-4-ylamino)benzoic acid] | – | ≤ 1 µg/mL |
| CCNC(=O)Nc1cc(Nc2ccccc2)c(C(=O)Nc2cccc(OC)c2)cn1 [Compound 32, 6-(3-ethylureido)-N-(3-methoxyphenyl)-4-(phenylamino)nicotinamide] | 4 µg/mL (≈ 9.87 µM) | 8 µg/mL (≈ 19.7 µM) |
| CCNC(=O)Nc1cc(Nc2ccccc2)c(C(=O)Nc2ccc(OC)cc2)cn1 [Compound 33, 6-(3-ethylureido)-N-(4-methoxyphenyl)-4-(phenylamino)nicotinamide] | 4 µg/mL (≈ 9.87 µM) | 16 µg/mL (≈ 39.5 µM) |
| CCNC(=O)Nc1cc(Nc2ccccc2)c(C(=O)Nc2ccc(Cl)cc2)cn1 [Compound 34, N-(4-chlorophenyl)-6-(3-ethylureido)-4-(phenylamino)nicotinamide] | 4 µg/mL (≈ 9.76 µM) | 32 µg/mL (≈ 78.1 µM) |
| CCNC(=O)Nc1cc(Nc2ccccc2)c(C(=O)Nc2ccncc2)cn1 [Compound 42, 6-(3-ethylureido)-4-(phenylamino)-N-(pyridin-4-yl)nicotinamide] | ≤ 1 µg/mL | ≤ 1 µg/mL |
| CCNC(=O)Nc1cc(Nc2ccccc2)c(C(=O)Nc2c(C)noc2C)cn1 [Compound 50, N-(3,5-dimethylisoxazol-4-yl)-6-(3-ethylureido)-4-(phenylamino)nicotinamide] | – | 4 µg/mL (≈ 10.1 µM) |
| CCNC(=O)Nc1cc(Nc2ccccc2)c(C(=O)Nc2ccnnc2)cn1 [Compound 64, 6-(3-ethylureido)-4-(phenylamino)-N-(pyridazin-4-yl)nicotinamide] | – | ≤ 1 µg/mL |
| CCNC(=O)Nc1cc(Nc2ccccc2)c(C(=O)Nc2cncc(C(=O)O)c2)cn1 [Compound 84, 5-(6-(3-ethylureido)-4-(phenylamino)nicotinamido)nicotinic acid] | – | 16 µg/mL (≈ 38.1 µM) |
| CCNC(=O)Nc1cc(Nc2cccc(C(=O)O)c2)c(C(=O)Nc2cccnc2)cn1 [Compound 87, 3-(2-(3-ethylureido)-5-(pyridin-3-ylcarbamoyl)pyridin-4-ylamino)benzoic acid] | – | 8 µg/mL (≈ 19 µM) |
| CCNC(=O)Nc1cc(Nc2ccc(=O)n(C)c2)c(C(=O)Nc2cccnc2)cn1 [Compound 108, 6-(3-ethylureido)-4-(1-methyl-6-oxo-1,6-dihydropyridin-3-ylamino)-N-(pyridin-3-yl)nicotinamide] | – | 16 µg/mL (≈ 39.3 µM) |
| CCNC(=O)Nc1cc(Nc2ccc(CC(=O)O)cc2)c(C(=O)Nc2cccnc2)cn1 [Compound 114, 2-(4-(2-(3-ethylureido)-5-(pyridin-3-ylcarbamoyl)pyridin-4-ylamino)phenyl)acetic acid] | – | 8 µg/mL (≈ 18.4 µM) |
| CCNC(=O)Nc1cc(Nc2ccc(C(=O)N(C)C)cc2)c(C(=O)Nc2cccnc2)cn1 [Compound 124, 4-(4-(dimethylcarbamoyl)phenylamino)-6-(3-ethylureido)-N-(pyridin-3-yl)nicotinamide] | – | 4 µg/mL (≈ 8.94 µM) |
| CCNC(=O)Nc1cc(Nc2ccc(C(N)=O)cc2)c(C(=O)Nc2cccnc2)cn1 [Compound 125, 4-(4-carbamoylphenylamino)-6-(3-ethylureido)-N-(pyridin-3-yl)nicotinamide] | – | ≤ 1 µg/mL |
| CCNC(=O)Nc1cc(Nc2ccc(C(=O)NC)cc2)c(C(=O)Nc2cccnc2)cn1 [Compound 126, 6-(3-ethylureido)-4-(4-(methylcarbamoyl)phenylamino)-N-(pyridin-3-yl)nicotinamide] | – | 2 µg/mL (≈ 4.61 µM) |
| CCNC(=O)Nc1cc(Nc2ccc(Cl)cc2)c(C(=O)Nc2ccc(N=[N+]=[N-])cc2)cn1 [Compound 132, N-(4-azidophenyl)-4-[(4-chlorophenyl)amino]-6-[(ethylcarbamoyl)amino]pyridine-3-carboxamide] | 8 µg/mL (≈ 17.7 µM) | – |
| CCNC(=O)Nc1cc(Nc2ccccc2)c(C(=O)Nc2ccc(C#CCO)cc2)cn1 [Compound 135, 6-[(Ethylcarbamoyl)amino]-N-[4-(3-hydroxyprop-1-yn-1-yl)phenyl]-4-(phenylamino)pyridine-3-carboxamide] | ≤ 1 µg/mL | – |
| CCNC(=O)Nc1cc(Nc2ccc(F)cc2)c(C(=O)Nc2cccnc2)cn1 [Compound 139] | ≤ 1 µg/mL | – |

| SMILES | MIC [1] | MIC [2] |
| --- | --- | --- |
| CCNC(=O)Nc1cc(Nc2ccc(C)cc2)c(C(=O)Nc2cccnc2)cn1 [Compound 140] | ≤ 1 µg/mL | – |
| CCNC(=O)Nc1cc(Nc2cccc(C(F)(F)F)c2)c(C(=O)Nc2cccnc2)cn1 [Compound 141] | ≤ 1 µg/mL | – |
| CCNC(=O)Nc1cc(Nc2ccc(C(F)(F)F)cc2)c(C(=O)Nc2cccnc2)cn1 [Compound 142] | 2 µg/mL (≈ 4.5 µM) | – |
| CCNC(=O)Nc1cc(Nc2cccc(F)c2)c(C(=O)Nc2cccnc2)cn1 [Compound 143] | ≤ 1 µg/mL | – |
| CCNC(=O)Nc1cc(Nc2ccccc2F)c(C(=O)Nc2cccnc2)cn1 [Compound 144] | ≤ 1 µg/mL | – |
| CCNC(=O)Nc1cc(Nc2ccc(OC)nc2)c(C(=O)Nc2cccnc2)cn1 [Compound 145] | 4 µg/mL (≈ 9.82 µM) | – |
| CCNC(=O)Nc1cc(Nc2cccnc2)c(C(=O)Nc2ccc(CCC(=O)OC)cc2)cn1 [Compound 147] | 4 µg/mL (≈ 8.65 µM) | – |
| CCNC(=O)Nc1cc(Nc2cccnc2)c(C(=O)Nc2ccc(CCC(=O)O)cc2)cn1 [Compound 153, 3-{4-[({6-[(ethylcarbamoyl)ami-no]-4-(pyridin-3-ylamino)pyridin-3-yl}carbonyl)amino]phenyl}pro-opanoic acid] | 16 µg/mL (≈ 35.7 µM) | – |
| CCNC(=O)Nc1cc(Nc2cccnc2)c(C(=O)Nc2ccc(NCC3(C(=O)OC)CCC3)nc2)cn1 [Compound 156, methyl 1-[({5-[({6-[(ethylcarbamoyl)amino]-4-(pyridin-3-ylamino)pyridin-3-yl}carbonyl)amino]pyridin-2-yl}amino)methyl]cyclobutane carboxylate] | 16 µg/mL (≈ 30.9 µM) | – |
| CCNC(=O)Nc1cc(Nc2cncc(C)c2)c(C(=O)Nc2cccnc2)cn1 [Compound 157] | 8 µg/mL (≈ 20.4 µM) | – |
| CCNC(=O)Nc1cc(Nc2ccnc(C)c2)c(C(=O)Nc2cccnc2)cn1 [Compound 162] | 8 µg/mL (≈ 20.4 µM) | – |
| CCNC(=O)Nc1cc(Nc2ccc(Cl)cc2)c(C(=O)Nc2cnc(NC3(C(=O)O)CCC3)nc2)cn1 [Compound 165, 1-({5-[({4-[(4-chlorophenyl)amino]-6-[(ethylcarbamoyl)amino]pyridin-3-yl}carbonyl)amino]pyrimidin-2-yl}amino) cyclobutanecarboxylic acid] | 16 µg/mL (≈ 30.5 µM) | – |
| CCNC(=O)Nc1cc(Nc2ccc(C)nc2)c(C(=O)Nc2cccnc2)cn1 [Compound 167] | 16 µg/mL (≈ 40.9 µM) | – |
| CCNC(=O)Nc1cc(Nc2cccnc2)c(C(=O)Nc2ccc(CC(C)(C)C(=O)OC)cc2)cn1 [Compound 170, methyl 3-{4-[({6-[(ethylcarbamoyl)amino]-4-(pyridin-3-ylamino)pyridin-3-yl}carbonyl)amino]phenyl}-2,2-dimethylpropanoate] | ≤ 1 µg/mL | – |
| CCNC(=O)Nc1cc(Nc2cncc(OC)c2)c(C(=O)Nc2cccnc2)cn1 [Compound 174] | 4 µg/mL (≈ 9.82 µM) | – |
| CCNC(=O)Nc1cc(Nc2ccc(Cl)cc2)c(C(=O)Nc2ccc(C#CC(C)(C)O)cc2)cn1 [Compound 185, 4-[(4-chlorophenyl)amino]-6-[(ethylcarbamoyl)amino]-N-[4-(3-hydroxy-3-methylbut-1-yn-1-yl)phenyl]pyridine-3-carboxamide] | 8 µg/mL (≈ 16.3 µM) | – |
| CNC(=O)Nc1cc(Nc2ccccc2)c(C(=O)Nc2ccc(CCC(=O)O)cc2)cn1 [Compound 186, 3-{4-[({6-[(methylcarbamoyl)amino]-4-(phenylamino)pyridin-3-yl}carbonyl)amino]phenyl}propanoic acid] | 32 µg/mL (≈ 73.8 µM) | – |
| CCNC(=O)Nc1cc(Nc2cccnc2)c(C(=O)Nc2ccc([C@@H]3C[C@H]3C(=O)O)cc2)cn1 [Compound 193] | 32 µg/mL (≈ 69.5 µM) | – |
| CCNC(=O)Nc1cc(Nc2ccc(Cl)cc2)c(C(=O)Nc2ccc(-n3cc(CN)nn3)cc2)cn1 [Compound 194, N-{4-[4-(aminomethyl)-1H-1,2,3-triazol-1-yl]phenyl}-4-[(4-chlorophenyl)amino]-6-[(ethylcarbamoyl)amino]pyridine-3-carboxamide] | 8 µg/mL (≈ 15.8 µM) | – |
| CCNC(=O)Nc1cc(Nc2ccc(OC)cc2)c(C(=O)Nc2ccc(CC(C)(C)C(=O)O)cc2)cn1 [Compound 208, 3-{4-[({6-[(ethylcarbamoyl)amino]-4-[(4-methoxyphenyl)amino]pyridin-3-yl}carbonyl)amino]phenyl}-2,2-dimethylpropanoic acid] | ≤ 1 µg/mL | – |
| CCNC(=O)Nc1cc(Nc2cc(F)cc(F)c2)c(C(=O)Nc2ccc(Cc3nnn[nH]3)cc2)cn1 [Compound 209, 4-(3,5-difluoroanilino)-6-(ethylcarbamoylamino)-N-[4-(1H-tetrazol-5-ylmethyl)phenyl]pyridine-3-carboxamide] | ≤ 1 µg/mL | – |
